Drawing on ChEMBL document CHEMBL3792297, “Studies on phenothiazines: New microtubule-interacting compounds with phenothiazine A-ring as potent antineoplastic agents” (Bioorg Med Chem, 2016), this text covers inhibition, IC50 and GI50 for nine compounds.

The species entered for one test is Ovis aries. As to the kind of experiment: Inhibition of sheep brain tubulin polymerization at 100 uM by DAPI staining-based fluorimetric method.
The nature of test [1]: Inhibition of sheep brain tubulin polymerization by DAPI staining-based fluorimetric method. More on the design: species or system Ovis aries.
The nature of test [2]: Inhibition of sheep brain tubulin polymerization preincubated for 1 hr measured after 30 mins by turbidimetric-spectrophotometric method. The arrangement: species or system Ovis aries.
Test [3] is described as follows: Growth inhibition of human OVCAR3 cells after 48 hrs by SRB assay. Format: functional. The note with it: OVCAR-3, 48 h. For orientation: In SRB staining, fixed cells bind dye roughly in proportion to their protein.
The subject of another test is A498. As to the kind of experiment: Growth inhibition of human A498 cells after 48 hrs by SRB assay. Format: functional. The note with it: A498, 48 h.
A short description of test [4]: Growth inhibition of human DU145 cells after 48 hrs by SRB assay. Format: functional. As to conditions: DU-145, 48 h.
Test [5] in a line: Growth inhibition of human SF295 cells after 48 hrs by SRB assay. Format: functional. The note with it: SF-295, 48 h.
The target of another test is Tubulin (Bos taurus, UniProt Q6B856+Q862L2+Q862F3). Description: Inhibition of bovine tubulin polymerization preincubated for 30 mins followed by GTP addition measured after 20 mins by spectrophotometric method. Format: protein assay.

Turning to `O=C(c1ccc(OC(F)(F)F)c(F)c1)N1c2ccccc2Sc2ccccc21`, in the test filed under Ovis aries, the inhibition was found to be 48%.

With `COc1ccc(C(=O)N2c3ccccc3Sc3ccccc32)cc1N`, in the test listed under Ovis aries, the inhibition amounted to 95%. Moreover, in test [1], the IC50 amounted to 9.5 µM.

`C=C(c1ccc(OC)c(O)c1)c1cc(OC)c(OC)c(OC)c1` registered an IC50 in test [2] of 1500 nM.

For `Cc1cc(C(=O)N2c3ccccc3Sc3ccccc32)ccc1Br`, the inhibition in the test filed under Ovis aries is 43%.

`COc1ccc(C(=S)N2c3ccccc3Sc3ccccc32)cc1F`: in the test filed under Ovis aries, the inhibition stood at 14%.

`COc1cc([C@@H]2c3cc4c(cc3C[C@H]3COC(=O)[C@@H]32)OCO4)cc(OC)c1OC` [DESOXYPODOPHYLLOTOXIN]: in the test filed under Ovis aries, the inhibition turned out to be 100%. In test [1], the concentration for half-maximal inhibition (IC50) was determined as 1.8 µM.

As to `COc1ccc(C(=O)c2cc(OC)c(OC)c(OC)c2)cc1O` [PHENSTATIN], the GI50 in test [3] came to 2.3 nM; with A498, 380 nM; in test [4], 34 nM; in test [5] it was 52 nM. Further, the figures for the IC50 (against Tubulin; in test [1]) were 1 µM and 3.4 µM, respectively. Moreover, the inhibition in the test listed under Ovis aries was 99%.

Compound `S=C(c1ccc2c(c1)Sc1ccccc1N2)c1c[nH]c2ccccc12` had an inhibition in the test filed under Ovis aries of 10%.

In the test filed under Ovis aries, `O=C(c1ccc(F)cc1Cl)N1c2ccccc2Sc2ccccc21` displayed an inhibition of 44%.

Usually inhibition stands for the percentage by which the read-out fell short of the control. Lower therefore signals a weak effect. For orientation: IC50 means the point on the concentration scale where inhibition reaches its midpoint. As usually defined, the GI50 is the concentration that inhibits growth by half.
